Experimental findings from patent US20230085307A1, “PYRIDAZINONE COMPOUND AND HERBICIDE” (NISSAN CHEMICAL CORPORATION, priority 2019, published 2023) are described below.

Series [1] has as its system soybean. In words: Test Example 5: effect on crop by foliage application, plastic box (Table 20, symbol d). It is filed as in vivo. The settings on record: 320 g/ha, evaluated three weeks after application. The procedure, abridged: (§1)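 Plants sown in sterilized diluvial soil and grown 14 days in a greenhouse at 25° C to 30° C, then sprayed on the foliage with the compound's emulsion diluted in water to a predetermined herbicide amount. Injury to weeds and crops scored three weeks after application on a visual rating scale.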

Series [2] deals with beet. The series is described as follows: Test Example 4: effect on crop by soil treatment (Table 19, symbol f). The settings on record: 320 g/ha. It is filed as in vivo. The procedure, abridged:
(§2)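 Three weeks of greenhouse growth at 25° C. to 30° C. followed a uniform surface spray of water-diluted emulsion at a predetermined herbicide amount. Seeds had been sown beforehand under about 1.5 cm of sterilized diluvial soil. Grading followed criteria set out in an earlier test.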

Series [3] relates to rapeseed. In words: Test Example 4: effect on crop by soil treatment (Table 19, symbol g). It is filed as in vivo. The following applies: 320 g/ha. The procedure, abridged:
as §2

Series [4] has as its system wheat. The series is described as follows: Test Example 4: effect on crop by soil treatment (Table 19, symbol e). It is filed as in vivo. The following applies: 320 g/ha. The procedure, abridged:
as §2

In series [5] the test system is soybean. In words: Test Example 4: effect on crop by soil treatment (Table 19, symbol d). In kind it is in vivo. The following applies: 320 g/ha. The procedure, abridged:
as §2

The test system of series [6] is corn. In words: Test Example 4: effect on crop by soil treatment (Table 19, symbol c). In kind it is in vivo. The settings on record: 320 g/ha. The procedure, abridged:
as §2

Series [7] deals with beet. In words: Test Example 5: effect on crop by foliage application, plastic box (Table 20, symbol f). It is filed as in vivo. The following applies: 320 g/ha, evaluated three weeks after application. The procedure, abridged: as §1
Series [8] deals with wheat. The series is described as follows: Test Example 5: effect on crop by foliage application, plastic box (Table 20, symbol e). In kind it is in vivo. The settings on record: 320 g/ha, evaluated three weeks after application. The procedure, abridged:
as §1

Series [9] concerns directly sowed rice. In words: Test Example 3: effect on crop by foliage application, Wagner pot (Table 18, symbol b). In kind it is in vivo. The settings on record: 320 g/ha. A digest of the protocol:
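Plants were sown in alluvial soil held under 0.1–0.5 cm standing water and grown 14 days in a greenhouse at 25–30 °C. An emulsifiable formulation, water-diluted to the set dose, was then sprayed onto the foliage, and effects were scored three weeks later using previously defined criteria.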

Series [10] has as its system false cleavers. In words: Test Example 5: herbicidal effect by foliage application, plastic box (Table 20, symbol Q). In kind it is in vivo, false cleavers (Galium spurium). The settings on record: foliage application, 320 g/ha, evaluated three weeks after application. A digest of the protocol:
as §1

In series [11] the test system is rapeseed. In words: Test Example 5: effect on crop by foliage application, plastic box (Table 20, symbol g). It is filed as in vivo. The settings on record: 320 g/ha, evaluated three weeks after application. The procedure, abridged:
as §1

Series [12] has as its system transplanted rice. The series is described as follows: Test Example 1: effect on crop, application before weed generation under submerged conditions (Table 16, symbol a). In kind it is in vivo. The following applies: 320 g/ha applied herbicide. The procedure, abridged: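 Submerged Wagner pots (alluvial soil, 4 cm water) sown with weed seeds and planted with 2.5-leaf rice seedlings; emulsifiable concentrate diluted in water applied to water surface on sowing day. Held in greenhouse at 25-30 °C; injury scored 0-5 by herbicidal rate after three weeks.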

In series [13] the test system is corn. In words: Test Example 5: effect on crop by foliage application, plastic box (Table 20, symbol c). The following applies: 320 g/ha, evaluated three weeks after application. It is filed as in vivo. The procedure, abridged:
as §1

The test system of series [14] is false cleavers. The series is described as follows: Test Example 4: herbicidal effect by soil treatment (Table 19, symbol Q). It is filed as in vivo, false cleavers (Galium spurium). The following applies: 320 g/ha. The procedure, abridged:
as §2

In turn, `COc1cc(F)ccc1-c1sc2ccc(Cl)cc2c1-c1c(O)c(C)nn(C)c1=O` [Compound No. 2-095, 4-(5-chloro-2-(4-fluoro-2-methoxyphenyl)benzo[b]thiophen-3-yl)-5-hydroxy-2,6-dimethylpyridazin-3(2H)-one] gave a melting point of 221 to 223 °C. Further, the “effect on crop, d: soybean” value in [1] was 4 (Herbicidal rate of 70% or more and less than 90%). Moreover, the “effect rating on crop, f: beet” value in [2] was 4 (Herbicidal rate of 70% or more and less than 90%). Also, the “effect rating on crop, g: rapeseed” value in series [3] is 1 (Herbicidal rate of 5% or more and less than 20%). Further, the “effect rating on crop, e: wheat” value in series [4] is reported as 0 (Herbicidal rate of 5% or less (almost no effect)). Further, the “effect rating on crop, d: soybean” value in [5] is listed as 0 (Herbicidal rate of 5% or less (almost no effect)). Also, the “effect rating on crop, c: corn” value in series [6] is given as 0 (Herbicidal rate of 5% or less (almost no effect)). In addition, the “effect on crop, f: beet” value in series [7] is 5 (Herbicidal rate of 90% or more (almost completely withered)). Besides, in series [8], the “effect on crop, e: wheat” value was 1 (Herbicidal rate of 5% or more and less than 20%). Besides, in series [9], the “effect on crop b (directly sowed rice), rating 0-5” value is 1 (Herbicidal rate of 5% or more and less than 20%). In addition, the “herbicidal effect on Q: false cleavers” value in [10] is reported as 5 (Herbicidal rate of 90% or more (almost completely withered)). Also, the “effect on crop, g: rapeseed” value in [11] is 5 (Herbicidal rate of 90% or more (almost completely withered)). In [12], the “Effect on crop a: transplanted rice (grade 0-5)” value is 0 (Herbicidal rate of 5% or less (almost no effect)). Besides, the “effect on crop, c: corn” value in series [13] was 1 (Herbicidal rate of 5% or more and less than 20%). The “herbicidal effect rating, Q: false cleavers” value in series [14] was 4 (Herbicidal rate of 70% or more and less than 90%).
